# Data as given in US6080746A, “Methods and compositions for the prophylaxis and treatment of cytomegalovirus infections” (priority 1991, dated 2000).
# Assays:
# [1] = system: human CMV; assay: Intravitreal human CMV infection in pigmented rabbits, intravitreal treatment; type: in vivo; parameters: key to retinal pathology level: 1-2+: focal hemmorhages and development of localized retinal necrosis; key to Vitritis scores: 1-2+: mild; key to vitritis: 2+: mild vitritis
# Experimental: Animal models for human CMV disease were prepared by inoculating human CMV by intravitreal injection into pigmented rabbits. The animals developed in 3-4 days post inoculation a mild to moderate vitritis, focal retinal microhemorrhages, and localized retinal necrosis.
# Dosages of 2'-CdG of various amounts in 100 μl of sterile water were injected into rabbit models beginning on day 3 post inoculation and repeated on day 5 and day 7N.
# Development and resolution of HCMV intraocular disease in the 80 μg therapy group was similar to disease development in the 100 μg therapy group as described below.
# Seven pigmented rabbits were infected with human CMV by intravitreal injection. Beginning on day 3 PI, these animals received 3 successive injections of 100 μg 2'CdG in 50 μl on day 3, 4, and 5 PI. […] Vitritis scores in these animals were 1-2+ (mild) and retinal pathology was reduced to 1-2+ level (focal hemmorhages and development of localized retinal necrosis). […] Initial virus recovery assays indicate that human CMV titers were reduced to 0 or 1 log by day 2 post therapy.
# [2] = system: CMV; assay: Intravitreal injection for a week, tolerability and antiviral effect; type: in vivo; details: 100 μg/kg every 48 hours intravitreally for a week
# From the text: Effective dosages may be administered also in sustained release dosage form.
# [3] = system: human CMV; assay: Intravitreal human CMV infection in pigmented rabbits, intravitreal treatment; type: in vivo; parameters: key to vitritis, maximum development: 1-2+: mild; details: 80 μl (so in the source) of 2'-CdG
# [4] = system: CMV; assay: Reduction of CPE in CMV-infected MRC5 cell monolayer cultures (Tables 4 and 5); type: cell-based; details: Human betaherpesvirus 5, MRC5, read-out: Reduction (%) of CPE by D-2'-CDG at Time of Virus Harvest
# Experimental: (§1) The effectiveness of racemic 2'-CdG and of D-2'-CdG on CMV yields in MRC5 cell monolayer cultures was determined by a plaque assay with the results set forth in Tables 4 and 5:
# (§2) ^a Drug treatment began immediately following the virus adsorption
# (§3) ^a Drug treatment began immediately following the 1 1/2 hour
# [5] = system: CMV; assay: CMV yields in MRC5 cell monolayer cultures by plaque assay (Tables 4 and 5); type: cell-based; details: for CMV Yield: virus control 1.1 × 10^5; for CMV Yield (log10): virus control 5.1
# Experimental: as §1, §2, §3
# [6] = system: MRC5 cells; assay: Drug cytotoxicity (gross morphology) in MRC5 cell monolayer cultures (Tables 4 and 5); type: cell-based, human
# Experimental: as §1, §2, §3
# [7] = system: CMV; assay: MIC50 against CMV in MRC5 cells; type: cell-based
# [8] = system: CMV; assay: ED50 antiviral efficacy against CMV in human foreskin fibroblast cells; type: cell-based; details: Human betaherpesvirus 5, read-out: ED50 (median dose at which 50% antiviral efficacy against CMV is produced)
# Experimental: The ED50 value (median dose at which 50% antiviral efficacy against CMV is produced) was 0.06 μg/mL for D-2'-CdG and 0.20 for DHPG in human foreskin fibroblast cells.
# [9] = system: human CMV; assay: Intravitreal human CMV infection in New Zealand white rabbits, intravitreal treatment; type: in vivo; details: 100 μg in 100 μl intravitreal, 48-hour intervals from day 4
# From the text: The symptoms included vitritis, iritis, retinal pathology (micro hemorrhages and focal necrosis of the retinal
# surface), corneal stromal haze and neovascularization, and corneal endothelial pigmented precipitates. […] The intravitreal route offers some significant advantages for intraocular infections including: 1) delivery of maximal concentrations of drug to the desired site of action; 2) increased potential for sustained release (i.e. longer half-life, T1/2) of the drug; and 3) reduced potential for systemic toxicity.
# [10] = system: human cytomegalovirus (strain AD 169); assay: Inhibition of human cytomegalovirus in MRC5 cells by plaque reduction assay (reduction of CPE, MIC50; Table 1); type: cell-based; details: Human betaherpesvirus 5, MRC5, treatment 0 hr postinfection, read-out: Reduction (%) of CPE at Time of Harvest
# From the text: (§4) In each case, drug treatment began 0 hr. postinfection.
# [11] = system: human cytomegalovirus (strain AD 169); assay: CMV yield in MRC5 cells (Table 1); type: cell-based
# From the text: as §4
# [12] = system: human diploid embryonic lung cells (MRC5); assay: Drug cytotoxicity (gross morphology) in MRC5 cells (Table 1); details: 320 μg/ml
# From the text: Also evaluated under the same conditions were prior art drugs Ara-A and ganciclovir (DHPG). In each case, drug treatment began 0 hr. postinfection.
# [13] = system: HCMV; assay: Virus yield-reduction assay, combination with DHPG on HCMV replication in MRC5 cells (Table 2); type: cell-based, human CMV; details: (±)-2'-CDG 0
# From the text: Effect of Combination Treatment^a With (±)-2'-CDG and
# DHPG on HCMV Replication in MRC5 Cells
# (Virus Yield-Reduction Assay)
# [14] = system: cytomegalovirus; details: in vivo; cited from earlier work
# [15] = 40 μg per 100 μl injection, intravitreal
# [16] = 100 μg in 50 μl daily, day 3, 4 and 5 PI
structure (smiles),measurement,setting,value
Nc1nc2c(ncn2[C@@H]2C[C@H](CO)[C@@H](O)C2)c(=O)[nH]1 [2'-CdG],Retinal necrosis at sacrifice,[1]; [15],evident in all animals at sacrifice
same,retinal hemorrhages,[1]; [15],focal retinal hemorrhages
same,vitritis,[1]; [15],2+
same,controlling the development of disease,"[1]; 40 μg per 100 μl injection, intravitreal, from day 3 post inoculation",moderately effective in controlling the development of disease
same,Vitritis scores,[1]; [16],1-2+
same,human CMV-induced vitritis and retinal pathology (preliminary),[1]; [16],effective in reducing the development of human CMV-induced vitritis and retinal pathology
same,progressive disease by day 7 post inoculation,[1]; [16],had not developed the progressive disease
same,retinal pathology level,[1]; [16],1-2+
same,progressive disease,[1]; 2'CdG at two day intervals,progressive disease that is observed
same,moderate to severe retinal necrosis and detachment,[1]; lower concentration 2'CdG therapies,observed in the lower concentration 2'CdG therapies
same,antiviral effectiveness,[2],antivirally effective
same,tolerability,[2],well tolerated
same,development of vitritis and of retinal pathology,[3]; intravitreal,effective in reducing the development of vitritis (1-2+ maximum development) and in altering the observed development of retinal pathology
same,"vitritis, maximum development",[3]; intravitreal,1-2+
same,Retinal blood vessel engorgement and focal microhemorrhages,"[3]; days 3, 4 and 5 post inoculation",Retinal blood vessel engorgement was evident and focal microhemorrhages were present
Nc1nc2c(ncn2[C@@H]2C[C@H](CO)[C@@H](O)C2)c(=O)[nH]1 [D-2'-CdG],inhibition at 0.1 µM,"[4]; Table 5, 0.1 μM",0%
same,inhibition at 0.32 µM,"[4]; Table 5, 0.32 μM",0%
same,inhibition at 1 µM,"[4]; Table 5, 1.0 μM",10%
same,inhibition at 3.2 µM,"[4]; Table 5, 3.2 μM",10%
same,inhibition at 10 µM,"[4]; Table 5, 10 μM",25%
same,inhibition at 32 µM,"[4]; Table 5, 32 μM",50%
same,inhibition at 100 µM,"[4]; Table 5, 100 μM",50%
same,CMV Yield,"[5]; Table 5, 0.1 μM",3.8 × 10^4 PFU/mL
same,CMV Yield (log10),"[5]; Table 5, 0.1 μM",4.6 log10 PFU/mL
same,CMV Yield,"[5]; Table 5, 0.32 μM",1.4 × 10^4 PFU/mL
same,CMV Yield (log10),"[5]; Table 5, 0.32 μM",4.1 log10 PFU/mL
same,CMV Yield,"[5]; Table 5, 1.0 μM",5.4 × 10^3 PFU/mL
same,CMV Yield (log10),"[5]; Table 5, 1.0 μM",3.7 log10 PFU/mL
same,CMV Yield,"[5]; Table 5, 3.2 μM",8.4 × 10^2 PFU/mL
same,CMV Yield (log10),"[5]; Table 5, 3.2 μM",2.9 log10 PFU/mL
same,CMV Yield,"[5]; Table 5, 10 μM",2 × 10^1 PFU/mL
same,CMV Yield (log10),"[5]; Table 5, 10 μM",1.3 log10 PFU/mL
same,CMV Yield,"[5]; Table 5, 32 μM",0 PFU/mL
same,CMV Yield,"[5]; Table 5, 100 μM",0 PFU/mL
same,Drug Cytotoxicity (gross morphology),"[6]; Table 5, 0.1 μM",0
same,Drug Cytotoxicity (gross morphology),"[6]; Table 5, 0.32 μM",0
same,Drug Cytotoxicity (gross morphology),"[6]; Table 5, 1.0 μM",0
same,Drug Cytotoxicity (gross morphology),"[6]; Table 5, 3.2 μM",0
same,Drug Cytotoxicity (gross morphology),"[6]; Table 5, 10 μM",0
same,Drug Cytotoxicity (gross morphology),"[6]; Table 5, 32 μM",v. sl. toxicity
same,Drug Cytotoxicity (gross morphology),"[6]; Table 5, 100 μM",slight toxicity
same,Drug Cytotoxicity (gross morphology),"[6]; Table 5, 320 μM",toxic
same,IC50,[7]; Human betaherpesvirus 5,< 0.029 µg/mL
same,MIC50 relative to the MIC50 of DL-2'-CdG,[7]; same conditions,about half (or less)
same,EC50,[8],0.06 µg/mL
same,clinical outcome compared with ganciclovir (DHPG),[9],clinically better than treatment with ganciclovir (DHPG)
same,"development of retinal pathology, severity of vitritis and iritis vs placebo",[9],effective in reducing the development of retinal pathology and in reducing the severity of the vitritis and iritis
"Nc1nc(O)c2ncn(COC(CO)CO)c2n1 [DHPG, dihydroxy propoxymethyl guanine, reference compound]",inhibition at 0.1 µg/mL,[10]; 0.1 μg/ml,0%
same,inhibition at 0.32 µg/mL,[10]; 0.32 μg/ml,5%
same,inhibition at 1 µg/mL,[10]; 1.0 μg/ml,30%
same,inhibition at 3.2 µg/mL,[10]; 3.2 μg/ml,60%
same,inhibition at 10 µg/mL,[10]; 10 μg/ml,95%
same,inhibition at 32 µg/mL,[10]; 32 μg/ml,100%
same,inhibition at 100 µg/mL,[10]; 100 μg/ml,100%
same,inhibition at 320 µg/mL,[10]; 320 μg/ml,100%
same,CMV Yield,"[11]; 0.1 μg/ml, virus control 5.5 (DHPG 5.3)",4.7 log10 CCID50 /ml
same,CMV Yield,"[11]; 0.32 μg/ml, virus control 5.5 (DHPG 5.3)",4.6 log10 CCID50 /ml
same,CMV Yield,"[11]; 1.0 μg/ml, virus control 5.5 (DHPG 5.3)",3.6 log10 CCID50 /ml
same,CMV Yield,"[11]; 3.2 μg/ml, virus control 5.5 (DHPG 5.3)",2.3 log10 CCID50 /ml
same,CMV Yield,"[11]; 10 μg/ml, virus control 5.5 (DHPG 5.3)",1.0 log10 CCID50 /ml
same,CMV Yield,"[11]; 32 μg/ml, virus control 5.5 (DHPG 5.3)",0 log10 CCID50 /ml
same,CMV Yield,"[11]; 100 μg/ml, virus control 5.5 (DHPG 5.3)",0 log10 CCID50 /ml
same,CMV Yield,"[11]; 320 μg/ml, virus control 5.3",0 log10 CCID50 /ml
same,Drug Cytotoxicity (gross morphology),[12],sl. toxicity
same,Reduction in CMV Yield,[13]; DHPG 1.0 μM,0.5 Log10 PFU/ML
same,Reduction in CMV Yield,[13]; DHPG 3.2 μM,1.3 Log10 PFU/ML
same,Reduction in CMV Yield,[13]; DHPG 10.0 μM,1.8 Log10 PFU/ML
same,EC50,[8],0.2 µg/mL
same,toxicity,[14],dose-limiting toxicity
